The record followed here is patent publication US20260217688A1, “INHIBITORS OF JAK2” (Llydaw Therapeutics, Inc., priority 2022, published 2026).

For one data set, the target named is T1, JAK2 JH2 (Homo sapiens, UniProt O60674).
T1 construct: Enzyme: JAK2 JH2, His-Avi-Tag, Biotin-Labeled (BPS Bioscience, Cat #79074) 1 nM; His; purchased BPS Bioscience 79074
Put plainly: JAK2 JH2 TR-FRET Assay. The note with it: JAK2 JH2 1 nM, Tracer ZE84-0003 10 nM. Type of data set: binding. The protocol:
Assay Buffer 1×: • 20 mM HEPES pH 7.2-7.4; • 10 mM MgCl2; • 0.015% Brij-35; • 2 mM DTT; • 0.05 mg/ml BSA.
Final assay concentrations: • DMSO: 0.25%; • Streptavidin Tb-cryptate (Cisbio, Cat #610SATLB) 0.2 nM; • Enzyme: JAK2 JH2, His-Avi-Tag, Biotin-Labeled (BPS Bioscience, Cat #79074) 1 nM; • Probe: Tracer ZE84-0003 (ChemRar) 10 nM.
Materials: • Reaction plate: ProxiPlate-384 Plus White Plate (PerkinElmer); • Dilution plate: Diamond Well Plate (Axygen, Cat #P-384-120 SQ-C-S); • Compounds plate: Diamond Well Plate (Axygen, Cat #P-384-120 SQ-C-S).
Assay protocol: • 1. Prepare 400× solutions of compounds in DMSO into Compounds plate; • 2. Prepare Dilution plate: add 39 μL of 1× Assay buffer per well of Dilution plate; • 3. Prepare 2×Tb-cryptate mix in 1× Assay buffer. Add 10 μL of 2×Tb-cryptate mix to K-(Tb-cryptate and Probe without Enzyme) wells and blank (Tb-cryptate without Probe and Enzyme) wells; • 4. Add JAK2 JH2 into the rest of 2×Tb-cryptate mix to make 2×JAK2 JH2+Tb-cryptate mix. Add 10 μL per well into Reaction plate; • 5. Centrifuge plate at 200 g for 1 min; • 6. Dilute 1 μL of 400× compounds in 39 μL 1× Assay buffer in Dilution plate; • 7. Add 2 μL of 10× compounds from Dilution plate to Reaction plate with 10 μL of JAK2 JH2+Tb-cryptate mix; • 8. Centrifuge plate at 200 g for 1 min; • 9. Pre-incubate Reaction plate with compounds 15 min; • 10. Prepare 2.5× Tracer mix; • 11. Add 8 μL of 2.5× Tracer mix into appropriate wells of Reaction plate; • 12. Centrifuge plate at 800 g for 3 min; • 13. Incubate at rt for 15 min; • 14. Measure Fluorescence using Microplate Reader (Ex: TR, Em1/Em2: 482/520). The results of this assay are shown in the Table B. The values of EC50 shown as a letters A-D, where: A≤0.01 μM; 0.01 μM<B≤0.05 μM; 0.05 μM<C≤0.1 μM; D>0.1.
For orientation: TR-FRET usually uses a lanthanide donor and a delayed reading to cut background.

A short description of data set [1]: Proliferation inhibition assay (CellTiter-Glo), Ba/F3 JAK2 V617F. Type of data set: cell-based. The note with it: mouse, Ba/F3 (JAK2 V617F) cells; with 10 ng/ml rmIL-3, 72 h; read-out: Ba/F3 JAK2 V617F + IL3, CC50 3 days. The protocol:
(§1) Ba/F3 (JAK2 wt) (ABM, T3076) cells and Ba/F3 (JAK2 V617F) (WuXi AppTec) cells were grown in RPMI-1640 (Gibco, cat. number 21870) supplemented with 10% FBS (Hyclone Laboratories Inc, Cat #SV30160.03), 1× Antibiotic-antimycotic (Gibco, Cat #15240-062), 2× Sodium pyruvate (Paneco, cat #F023), 2× Essential amino acids (Paneco, cat #F115/100), 1× Non-Essential amino acids (Paneco, cat #F116) at 37° C. in 5% CO2 atmosphere.
(§2) For the proliferation inhibition assay Ba/F3 (JAK2 wt) and Ba/F3 (JAK2 V617F) cells were seeded into a CellBIND® 384-well Flat Clear Bottom Black Polystyrene Microplates (Corning, USA, Cat #3770) at a density of 4000 cells per well in complete culture medium with or without 10 ng/ml rmIL-3 (RD systems, USA, Cat #403-ML-025) using Biomek FX/NX (384) liquid handler, 45 μl of cell suspension in complete culture medium per well. 500× compound's stocks in DMSO (Sigma Cat #D2650) were prepared in compounds plate (Diamond Well Plate, Axigen, Cat #P-384-120 SQ-C-S) applying Biomek 2000. 1 μl of 500× compounds stock was added to 49 μl of complete culture medium into Dilution plate (Diamond Well Plate, Axigen, Cat #P-384-120 SQ-C-S), mixed and then 5 μl of 10× compounds solution was transferred to cells using Biomek FX/NX (384) liquid handler. The centrifugation at 100 g for 1 min at Eppendorf 5810 followed. Final DMSO concentration in assay was 0.2%. All treatments were performed in technical and biological duplicates. Treated cells were incubated for 72 h at 37° C. with 5% CO2.
(§3) After 3 days of incubation, CellTiter-Glo Luminescent Cell Viability Assay (Promega) was performed. 10 μl of CellTiter-Glo (Promega, CAT #G7572) was added to the cells using Biomek FX/NX (384) liquid handler. The assay plate was centrifuged at 100 g for 1 min and luminescence signal was measured using Microplate Reader (CLARIOStar).
A general note: Cellular ATP, detected with luciferase, serves as a proxy for viable cell number.

The test system of the next data set is Ba/F3 (JAK2 V617F) cells. The description is as above. Type of data set: cell-based. The note with it: Mus musculus, BaF3; without IL3, 72 h; read-out: Ba/F3 JAK2 V617F, CC50 3 days. The protocol:
as §1, §2, §3

The nature of data set [2]: Proliferation inhibition assay (CellTiter-Glo), Ba/F3 JAK2 wt. Type of data set: cell-based. The note with it: mouse, Ba/F3 (JAK2 wt) cells. The protocol: as §1, §2, §3
The mark [3] stands for this setting: with 10 ng/ml rmIL-3, 72 h, read-out: Ba/F3 JAK2 wt + IL3, CC50 3 days.
The mark [4] stands for this setting: without IL3, 72 h, read-out: Ba/F3 JAK2 wt, CC50 3 days.

T1 sequence (O60674 545-809 limits assumed): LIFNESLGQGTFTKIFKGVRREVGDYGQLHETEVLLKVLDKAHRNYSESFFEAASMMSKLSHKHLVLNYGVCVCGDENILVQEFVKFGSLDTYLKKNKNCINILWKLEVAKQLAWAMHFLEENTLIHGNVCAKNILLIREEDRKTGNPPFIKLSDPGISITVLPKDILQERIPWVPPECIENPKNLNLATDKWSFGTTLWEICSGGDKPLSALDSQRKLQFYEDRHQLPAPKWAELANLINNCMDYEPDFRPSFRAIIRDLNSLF

As usually defined, the EC50 is the concentration that produces a half-maximal response. A lower EC50 goes with a more potent agent. The compound `COc1c(Nc2nc(Nc3cnn(C)c3)ncc2C(N)=O)cccc1-c1ccccn1` [Compound 2, 4-[2-methoxy-3-(2-pyridyl)anilino]-2-[(1-methylpyrazol-4-yl)amino]pyrimidine-5-carboxamide] displayed an EC50 at JAK2 JH2 of 0.05 to 0.1 µM. The CC50 at 72 h was 1 to 5 µM in data set [1], over 10 µM in data set [2] (setting [3]) and over 10 µM in data set [2] (setting [4]). The CC50 with Ba/F3 (JAK2 V617F) cells was at most 0.5 µM.

The compound `COc1c(Nc2nc(Nc3cnn(C)c3)ncc2C(N)=O)cccc1-c1nnc(C)o1` [Compound 3, 4-[2-methoxy-3-(5-methyl-1,3,4-oxadiazol-2-yl)anilino]-2-[(1-methylpyrazol-4-yl)amino]pyrimidine-5-carboxamide] returned an EC50 on JAK2 JH2 of 0.01 to 0.05 µM. Besides, the CC50 at 72 h in data set [1], in data set [2] (setting [3]) and in data set [2] (setting [4]) was over 10 µM throughout. In addition, in the data set with Ba/F3 (JAK2 V617F) cells, the CC50 was in the range of 5 to 10 µM.

Compound `COc1c(Nc2nc(Nc3cnn(C(C)C)c3)ncc2C(N)=O)cccc1-c1ncn(C)n1` [Compound 4, 2-((1-Isopropyl-1H-pyrazol-4-yl)amino)-4-((2-methoxy-3-(1-methyl-1H-1,2,4-triazol-3-yl)phenyl)amino)pyrimidine-5-carboxamide] displayed an EC50 at JAK2 JH2 of at most 0.01 µM. For the same compound, the CC50 at 72 h is 1 to 5 µM in data set [1], 5 to 10 µM in data set [2] (setting [3]) and 5 to 10 µM in data set [2] (setting [4]). For the same compound, the CC50 with Ba/F3 (JAK2 V617F) cells is at most 0.5 µM.

In the case of `COc1c(Nc2nc(Nc3cnn(-c4ccccc4)c3)ncc2C(N)=O)cccc1-c1ncn(C)n1` [Compound 6, 4-((2-Methoxy-3-(1-methyl-1H-1,2,4-triazol-3-yl)phenyl)amino)-2-((1-phenyl-1H-pyrazol-4-yl)amino)pyrimidine-5-carboxamide], on JAK2 JH2, the EC50 lay within 0.01 to 0.05 µM. The CC50 at 72 h in data set [1] is at most 0.5 µM; in data set [2] (setting [3]), over 10 µM; in data set [2] (setting [4]), over 10 µM. Also, the CC50 in the data set with Ba/F3 (JAK2 V617F) cells was at most 0.5 µM.

On JAK2 JH2, `COc1c(Nc2nc(Nc3cnn(C4CCNCC4)c3)ncc2C(N)=O)cccc1-c1ncn(C)n1` [Compound 7, 4-((2-Methoxy-3-(1-methyl-1H-1,2,4-triazol-3-yl)phenyl)amino)-2-((1-(piperidin-4-yl)-1H-pyrazol-4-yl)amino)pyrimidine-5-carboxamide 2,2,2-trifluoroacetate] displayed an EC50 of 0.01 to 0.05 µM. Moreover, the CC50 at 72 h in data set [1], in data set [2] (setting [3]) and in data set [2] (setting [4]) was over 10 µM in each case. For the same compound, the CC50 in the data set with Ba/F3 (JAK2 V617F) cells lay within 1 to 5 µM.

At JAK2 JH2, `COc1c(Nc2nc(Nc3cnn(C4CCNCC4)c3)ncc2C(N)=O)cccc1-c1nc2ccccc2o1` [Compound 8, 4-[3-(1,3-benzoxazol-2-yl)-2-methoxy-anilino]-2-[[1-(4-piperidyl)pyrazol-4-yl]amino]pyrimidine-5-carboxamide] came in with an EC50 of at most 0.01 µM. The figures for the CC50 at 72 h in data set [1], in data set [2] (setting [3]) and in data set [2] (setting [4]) were 5 to 10 µM, over 10 µM and over 10 µM, respectively. In addition, the CC50 with Ba/F3 (JAK2 V617F) cells was 1 to 5 µM.

`COc1c(Nc2nc(Nc3cnn(C4CCCCC4)c3)ncc2C(N)=O)cccc1-c1ncn(C)n1` [Compound 11, 2-[(1-cyclohexylpyrazol-4-yl)amino]-4-[2-methoxy-3-(1-methyl-1,2,4-triazol-3-yl)anilino]pyrimidine-5-carboxamide] had an EC50 on JAK2 JH2 of at most 0.01 µM. The CC50 at 72 h in data set [1] is at most 0.5 µM; in data set [2] (setting [3]), 1 to 5 µM; in data set [2] (setting [4]), 1 to 5 µM. The CC50 with Ba/F3 (JAK2 V617F) cells was at most 0.5 µM.

For the compound `COc1c(Nc2nc(Nc3cnn(C)c3)ncc2C(N)=O)cccc1-c1nc2ccccc2o1` [Compound 12, 4-[3-(1,3-benzoxazol-2-yl)-2-methoxy-anilino]-2-[(1-methylpyrazol-4-yl)amino]pyrimidine-5-carboxamide], at JAK2 JH2, the EC50 lay within 0.01 to 0.05 µM. For the same compound, the CC50 at 72 h in data set [1] was 1 to 5 µM; in data set [2] (setting [3]), over 10 µM; in data set [2] (setting [4]) it was over 10 µM. Also, the CC50 in the data set on Ba/F3 (JAK2 V617F) cells is at most 0.5 µM.

On JAK2 JH2, `COc1c(Nc2nc(Nc3cnn(C4CCOCC4)c3)ncc2C(N)=O)cccc1-c1ncn(C)n1` [Compound 14, 4-[2-methoxy-3-(1-methyl-1,2,4-triazol-3-yl)anilino]-2-[(1-tetrahydropyran-4-ylpyrazol-4-yl)amino]pyrimidine-5-carboxamide] showed an EC50 of at most 0.01 µM. In addition, the CC50 at 72 h in data set [1] is 5 to 10 µM; in data set [2] (setting [3]), over 10 µM; in data set [2] (setting [4]), over 10 µM. Further, the CC50 with Ba/F3 (JAK2 V617F) cells is at most 0.5 µM.

In turn, `COc1c(Nc2nc(Nc3cnn(C(C)C)c3)ncc2C(N)=O)cccc1-c1nc2ccccc2o1` [Compound 16, 4-[3-(1,3-benzoxazol-2-yl)-2-methoxy-anilino]-2-[(1-isopropylpyrazol-4-yl)amino]pyrimidine-5-carboxamide] registered an EC50 on JAK2 JH2 of 0.01 to 0.05 µM. Further, the CC50 at 72 h in data set [1] was 0.5 to 1 µM; in data set [2] (setting [3]) it was 5 to 10 µM; in data set [2] (setting [4]) it was over 10 µM. Also, the CC50 in the data set on Ba/F3 (JAK2 V617F) cells was at most 0.5 µM.

`COc1c(Nc2nc(Nc3c(C)nn(C)c3C)ncc2C(N)=O)cccc1-c1ncn(C)n1` [Compound 17, 4-[2-methoxy-3-(1-methyl-1,2,4-triazol-3-yl)anilino]-2-[(1,3,5-trimethylpyrazol-4-yl)amino]pyrimidine-5-carboxamide] gave an EC50 at JAK2 JH2 of over 0.1 µM. The CC50 at 72 h in data set [1], in data set [2] (setting [3]) and in data set [2] (setting [4]) was over 10 µM each time. The CC50 in the data set with Ba/F3 (JAK2 V617F) cells is over 10 µM.

Turning to `CCn1nc(C)c(Nc2ncc(C(N)=O)c(Nc3cccc(-c4ncn(C)n4)c3OC)n2)c1C` [Compound 18, 2-[(1-ethyl-3,5-dimethyl-pyrazol-4-yl)amino]-4-[2-methoxy-3-(1-methyl-1,2,4-triazol-3-yl)anilino]pyrimidine-5-carboxamide], at JAK2 JH2, the EC50 was over 0.1 µM. The CC50 at 72 h in data set [1], in data set [2] (setting [3]) and in data set [2] (setting [4]) was over 10 µM throughout. The CC50 with Ba/F3 (JAK2 V617F) cells is 5 to 10 µM.

As for `COc1c(Nc2nc(Nc3cnn(CC4CCCCC4)c3)ncc2C(N)=O)cccc1-c1ncn(C)n1` [Compound 22, 2-[[1-(cyclohexylmethyl)pyrazol-4-yl]amino]-4-[2-methoxy-3-(1-methyl-1,2,4-triazol-3-yl)anilino]pyrimidine-5-carboxamide], the 50% effective concentration (EC50) on JAK2 JH2 lay within 0.01 to 0.05 µM. In addition, the CC50 at 72 h in data set [1] is 1 to 5 µM; in data set [2] (setting [3]), 5 to 10 µM; in data set [2] (setting [4]), 5 to 10 µM. Besides, the CC50 in the data set on Ba/F3 (JAK2 V617F) cells was at most 0.5 µM.
